Structures are written as SMILES.

The results in this text go back to paper PMC3465084 (Journal of medicinal chemistry, 2012).

One data set deals with mAb E06. As to the kind of experiment: Binding of mAb E06 to compound 9. The note with it: Figure S2, Supporting Information.
The next data set is described as follows: Water solubility. Type of data set: physicochemical.
Data set [1] can be described thus: Stability in aqueous solution. The class given is physicochemical.
The next data set has as its system J774 murine macrophages. As to the kind of experiment: CD36 Macrophage Receptor Binding Competition Assay. The note with it: competition with OxLDL binding.
For another data set, the system named is CD36 scavenger receptor. Description: Competition for binding of CuOxLDL to the CD36 scavenger receptor. The note with it: Figure S1, Supporting Information.
A further data set deals with macrophages. The note with it: at the concentrations used, even at room temperature for up to 72 hours; cell number or protein content, time course studies of cell function (data not shown).

Take `CCCCCCCCCCCCCCCC(=O)OC[C@H](COP(=O)([O-])OCC[N+](C)(C)C)OC(=O)CCCCN(C)CCCC[C@H](NC(=O)[C@@H](NC(=O)CNC(=O)[C@@H](NC(C)=O)[C@@H](C)O)[C@@H](C)O)C(=O)NCC(=O)NCC(=O)O` [Compound 9, (4S,10S,13S,25R)-13-((2-((carboxymethyl)amino)-2-oxoethyl)carbamoyl)-4,10-bis((R)-1-hydroxyethyl)-18-methyl-2,5,8,11,23-pentaoxo-25-((palmitoyloxy)methyl)-24-oxa-3,6,9,12,18-pentaazahexacosan-26-yl-(2-(trimethylammonio)-ethyl) phosphate]: the “binding of mAb E06 (in words)” value with mAb E06 is given as “specifically binds”. For the same compound, in “Water solubility”, the “water solubility (in words)” value is recorded as “water soluble”. In data set [1], the “stability in aqueous solution (in words)” value is “stable”. Moreover, the “binding to macrophage scavenger receptors (in words)” value in the data set on J774 murine macrophages is given as “binds to macrophage scavenger receptors”. Further, the “competition for the binding of CuOxLDL to the CD36 scavenger receptor (in words)” value with CD36 scavenger receptor is “competes with high affinity”. In addition, the “impact on viability of macrophages” value in the data set with macrophages is “no impact”.
